According to publication PMC11249646, “Small-Molecule Disruptors of the Interaction between Calcium- and Integrin-Binding Protein 1 and Integrin αIIbβ3 as Novel Antiplatelet Agents” (ACS Pharmacology & Translational Science, 2024):
Read-outs that look alike come from different tables or passages of the source.

Legend:
[1] = biological target: T1, GST-CIB1 : F-scrambled peptide (Homo sapiens, UniProt Q99828); experiment: FP scrambled-peptide counter screen, 1536-well format; format: binding; conditions: for Curve Class (counterscreen): qHTS curve class; for IC50: read-out: IC50 [μM] (counterscreen)
T1 construct: made in house; host or cells: BL-21 plus RIL cells (E. coli)
T1 sequence (Q99828 1-191): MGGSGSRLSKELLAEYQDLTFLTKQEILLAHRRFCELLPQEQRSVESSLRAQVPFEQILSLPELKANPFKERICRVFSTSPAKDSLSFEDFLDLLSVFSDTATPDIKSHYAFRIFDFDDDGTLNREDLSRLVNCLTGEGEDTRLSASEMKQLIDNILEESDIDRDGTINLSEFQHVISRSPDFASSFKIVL

[2] = biological target: T2, CIB1 and αIIb interaction (CIB1-GST : F-αIIb peptide) (Homo sapiens, UniProt Q99828); experiment: FP assay, 1536-well qHTS format (primary and confirmatory screen); format: binding; conditions: for Confirm? (confirmatory screen): YES/NO call; for Curve Class (confirmatory screen): qHTS curve class, a negative sign marks inhibitory curves; for Efficacy (%) (confirmatory screen) / Efficacy (%): negative = inhibition; for Curve Class: negative sign = inhibitory curve
T2 construct: made in house; host or cells: BL-21 plus RIL cells (E. coli)
T2 sequence (Q99828 1-191): T1 sequence (Q99828 1-191)

[3] = Table S3, counterscreen, a negative sign marks inhibitory curves
[4] = Table S3, counterscreen, negative = inhibition
[5] = Table S3, confirmatory screen, read-out: IC50 [μM] (confirmatory screen)
[6] = qHTS primary screen hits, Table S2
[7] = qHTS primary screen hits, Table S2, several classes where COUNT > 1
[8] = qHTS primary screen hits, Table S2, read-out: IC50
[9] = qHTS primary screen of LOPAC/NPACT libraries

Compound	Efficacy (%) [2, 6] [%]	Curve Class [2, 7]	IC50 [2, 8] [µM]	other results
O=C(O)C(F)(F)F.O=C(O)c1ccc(-c2ccc3ncnc(N4CCOCC4)c3c2)o1 [NCGC00229619-01]	-16	-1.4	4	Curve Class (counterscreen) [1, 3]: -2.4; Efficacy (%) (counterscreen) [1, 4]: -53%; IC50 ([1]; Table S3, counterscreen): 5.6 µM; Confirm? (confirmatory screen) ([2]; Table S3, confirmatory screen): YES; Curve Class (confirmatory screen) ([2]; Table S3, confirmatory screen): -1.4; Efficacy (%) (confirmatory screen) ([2]; Table S3, confirmatory screen): -29%; IC50 [2, 5]: 10 µM
COC(=O)c1scc2c(O)cc(C(F)(F)F)nc12 [NCGC00168006-01]	-56	-2.2	50.1	Curve Class (counterscreen) [1, 3]: -3; Efficacy (%) (counterscreen) [1, 4]: -67%; IC50 ([1]; Table S3, counterscreen): 79.4 µM; Confirm? (confirmatory screen) ([2]; Table S3, confirmatory screen): YES; Curve Class (confirmatory screen) ([2]; Table S3, confirmatory screen): -3; Efficacy (%) (confirmatory screen) ([2]; Table S3, confirmatory screen): -58%; IC50 [2, 5]: 70.8 µM
Nc1ccc(O)c(C(=O)O)c1 [NCGC00016344-07]	-58	-2.2	–	Efficacy (%) (counterscreen) [1, 4]: 154%; Curve Class (confirmatory screen) ([2]; Table S3, confirmatory screen): 4; Efficacy (%) (confirmatory screen) ([2]; Table S3, confirmatory screen): -27%
O=C1c2cccc(O)c2C(=O)c2c(O)cccc21 [NCGC00091367-05]	–	–	–	Efficacy (%) (counterscreen) ([1]; counterscreen): -17%; Confirm? (counterscreen) ([1]; counterscreen, YES/NO): YES; Curve Class (counterscreen) ([1]; counterscreen, negative sign = inhibitory curve): 4
Cc1c(Cl)cccc1-n1c(CCC(=O)O)ccc1-c1cccs1 [NCGC00100415-03]	-50	-2.2	50.1	–
Cc1ccccc1C(=O)N1CCc2cc(-c3nc(NC(=O)Cc4cccc(OCCOCCOCCN)c4)sc3C)ccc21.O=C(O)C(F)(F)F [NCGC00351617-01]	-37	-2.4	50.1	–
N#C[C@@H]1C[C@@H]2C[C@@H]2N1C(=O)[C@@H](N)C12CC3CC(CC(O)(C3)C1)C2 [NCGC00242597-01]	-49	-2.2	44.7	–
C=C1C(=O)O[C@H]2[C@H]1[C@@H](OC(=O)C(C)CO)C[C@@]1(C)[C@H](O)CCC(=O)[C@H]21 (some centres unmarked) [NCGC00169369-02]	–	–	–	Efficacy (%) [2, 9]: -20%; Curve Class [2, 9]: -1.4; IC50 ([2]; qHTS primary screen of LOPAC/NPACT libraries, read-out: IC50): 22.4 µM
S=P(N1CC1)(N1CC1)N1CC1 [NCGC00095042-06]	-44	–	–	IC50 ([2]; IC50 [μM]): 126 µM; Curve Class [2, 6]: -2.2
O=S(=O)(O)c1ccc2cc(/N=N/c3cc(S(=O)(=O)O)c4cccnc4c3O)ccc2c1 [NCGC00013917-09]	-57	–	14.3	–
COc1ccc2c(c[n+](C)c3c4cc5c(cc4ccc23)OCO5)c1OC [NCGC00015225-07]	–	–	–	Efficacy (%) ([2]; qHTS FP screen hits, Table S2): -30%; IC50 ([2]; qHTS FP screen hits, Table S2, read-out: IC50): 24.6 µM
O=C(CN1C(=O)N/C(=C\c2cn(-c3cccc(C(=O)O)c3)cn2)C1=O)Nc1ccc(Cl)cc1 [NCGC00182401-01]	-30	-2.4	44.7	–
CC(=O)N[C@@H](CC(=O)O)C(=O)N[C@@H](CCC(=O)O)C(=O)N[C@H](C(=O)N[C@@H](CC(=O)O)C(=O)Nc1ccc2c(C)cc(=O)oc2c1)C(C)C [NCGC00485360-01]	-37	–	39.8	Curve Class ([2]; qHTS primary screen hits, Table S2, NPACT library): -2.4
Cc1ccc(S(=O)(=O)Nc2cnccc2C(=O)Nc2nc(C(=O)O)cs2)cc1.O=C(O)C(F)(F)F [NCGC00343903-01]	-36	-2.4	50.1	–
